Laboratory results taken from patent publication US8410112B2, “Compounds useful as inhibitors of ATR kinase” (Vertex Pharmaceuticals Incorporated, priority 2008, dated 2013).

molecular target: T1, full-length ATR (Homo sapiens, UniProt Q13535); assay: ATR Inhibition Assay (radioactive-phosphate incorporation); type: biochemical; settings: Ki(app); 5 nM full-length ATR, 10 μM ATP, 800 μM target peptide, 25° C.
T1 construct: in the presence of 5 nM full-length ATR
Method in brief: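 Buffer was 50 mM Tris/HCl pH 7.5, 10 mM MgCl2, 1 mM DTT, with 5 nM enzyme, 10 μM [γ-33P]ATP and 800 μM target peptide at 25 °C. Compound was pre-incubated 10 min before ATP start, and the reaction was stopped after 24 h. Phosphocellulose filter capture; Ki(app) came from non-linear regression of background-corrected initial rates.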

T1 sequence (Q13535 whole entry): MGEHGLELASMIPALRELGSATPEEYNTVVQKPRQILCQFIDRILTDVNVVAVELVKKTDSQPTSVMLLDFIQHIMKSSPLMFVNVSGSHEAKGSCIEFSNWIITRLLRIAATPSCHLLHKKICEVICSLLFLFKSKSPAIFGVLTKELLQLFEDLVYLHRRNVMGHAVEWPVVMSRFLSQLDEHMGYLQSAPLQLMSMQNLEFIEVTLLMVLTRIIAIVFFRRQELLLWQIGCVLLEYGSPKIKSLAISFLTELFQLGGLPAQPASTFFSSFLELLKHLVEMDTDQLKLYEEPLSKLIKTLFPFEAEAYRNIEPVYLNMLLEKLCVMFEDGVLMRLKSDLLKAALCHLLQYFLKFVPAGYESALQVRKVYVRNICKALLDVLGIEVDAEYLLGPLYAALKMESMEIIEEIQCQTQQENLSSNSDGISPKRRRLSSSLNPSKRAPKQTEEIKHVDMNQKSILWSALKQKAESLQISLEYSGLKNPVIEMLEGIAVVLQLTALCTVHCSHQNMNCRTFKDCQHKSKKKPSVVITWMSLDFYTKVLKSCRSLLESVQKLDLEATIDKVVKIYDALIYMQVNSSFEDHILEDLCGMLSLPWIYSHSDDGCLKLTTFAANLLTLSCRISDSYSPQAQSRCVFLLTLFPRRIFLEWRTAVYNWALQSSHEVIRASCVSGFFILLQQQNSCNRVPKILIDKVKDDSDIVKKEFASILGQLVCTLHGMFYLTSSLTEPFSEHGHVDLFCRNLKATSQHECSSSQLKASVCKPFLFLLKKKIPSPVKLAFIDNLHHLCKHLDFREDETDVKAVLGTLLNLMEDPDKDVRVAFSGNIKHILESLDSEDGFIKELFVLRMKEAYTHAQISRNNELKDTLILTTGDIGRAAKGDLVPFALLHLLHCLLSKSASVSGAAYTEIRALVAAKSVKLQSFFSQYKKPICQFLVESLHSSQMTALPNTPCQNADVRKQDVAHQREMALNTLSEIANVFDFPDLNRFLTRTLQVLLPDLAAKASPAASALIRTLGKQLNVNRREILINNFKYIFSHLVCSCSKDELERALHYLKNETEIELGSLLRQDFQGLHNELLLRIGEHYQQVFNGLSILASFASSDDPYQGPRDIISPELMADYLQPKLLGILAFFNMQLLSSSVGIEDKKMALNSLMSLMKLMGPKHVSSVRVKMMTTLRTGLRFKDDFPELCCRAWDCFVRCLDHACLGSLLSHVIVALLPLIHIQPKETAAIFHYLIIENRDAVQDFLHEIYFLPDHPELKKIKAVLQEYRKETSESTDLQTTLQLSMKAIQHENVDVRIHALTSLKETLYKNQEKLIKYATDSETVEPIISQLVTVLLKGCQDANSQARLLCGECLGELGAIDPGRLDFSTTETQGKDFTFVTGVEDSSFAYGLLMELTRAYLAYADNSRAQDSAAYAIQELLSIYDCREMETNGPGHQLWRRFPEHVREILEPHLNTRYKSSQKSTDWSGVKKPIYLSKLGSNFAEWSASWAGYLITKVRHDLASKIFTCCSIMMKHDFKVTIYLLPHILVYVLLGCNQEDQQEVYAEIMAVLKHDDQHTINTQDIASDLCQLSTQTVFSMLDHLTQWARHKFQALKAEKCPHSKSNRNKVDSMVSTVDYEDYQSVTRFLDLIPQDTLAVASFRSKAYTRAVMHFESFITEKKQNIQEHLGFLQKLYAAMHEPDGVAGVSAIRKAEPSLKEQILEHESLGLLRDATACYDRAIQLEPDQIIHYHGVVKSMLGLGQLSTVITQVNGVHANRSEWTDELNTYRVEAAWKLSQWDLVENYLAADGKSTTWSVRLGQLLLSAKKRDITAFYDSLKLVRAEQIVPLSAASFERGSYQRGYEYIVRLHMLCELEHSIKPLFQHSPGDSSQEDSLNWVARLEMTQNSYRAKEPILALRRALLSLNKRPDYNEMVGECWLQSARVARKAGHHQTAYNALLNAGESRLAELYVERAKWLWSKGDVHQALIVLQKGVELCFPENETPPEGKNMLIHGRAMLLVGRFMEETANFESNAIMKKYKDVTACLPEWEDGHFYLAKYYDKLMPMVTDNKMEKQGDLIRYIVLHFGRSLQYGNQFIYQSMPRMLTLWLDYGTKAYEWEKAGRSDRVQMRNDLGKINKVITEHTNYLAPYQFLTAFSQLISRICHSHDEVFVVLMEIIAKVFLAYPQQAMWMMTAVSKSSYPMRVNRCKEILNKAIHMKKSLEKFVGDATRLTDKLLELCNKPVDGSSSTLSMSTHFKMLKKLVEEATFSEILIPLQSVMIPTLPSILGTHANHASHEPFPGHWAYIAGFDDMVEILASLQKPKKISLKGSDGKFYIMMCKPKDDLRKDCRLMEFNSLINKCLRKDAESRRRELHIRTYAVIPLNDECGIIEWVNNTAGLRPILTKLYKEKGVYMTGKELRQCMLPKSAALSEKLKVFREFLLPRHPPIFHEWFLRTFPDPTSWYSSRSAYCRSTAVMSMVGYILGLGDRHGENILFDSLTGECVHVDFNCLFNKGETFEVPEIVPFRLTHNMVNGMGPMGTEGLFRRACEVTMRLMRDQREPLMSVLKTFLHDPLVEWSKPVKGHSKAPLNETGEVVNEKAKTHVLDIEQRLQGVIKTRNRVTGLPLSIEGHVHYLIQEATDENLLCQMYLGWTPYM

Compound	Ki [nM]
CNCc1ccc(-c2nnc(-c3nc(N4CCC(O)C4)cnc3N)o2)cc1 (centres unmarked) [Compound I-371, (35)-1-[5-Amino-6-[5-[4-(methylaminomethyl)phenyl]-1,3,4-oxadiazol-2-yl]pyrazin-2-yl]pyrrolidin-3-ol]	100 to 1000
Nc1ncc(N2C[C@@H]3CCC(O)[C@@H]3C2)nc1-c1nnc(-c2ccccc2)o1 (stereo in doubt) [Compound I-318, (3aR,6aS)-2-[5-Amino-6-(5-phenyl-1,3,4-oxadiazol-2-yl)pyrazin-2-yl]-3,3a,4,5,6,6a-hexahydro-1H-cyclopenta[c]pyrrol-6-ol]	< 100
CNCc1ccc(-c2nnc(-c3nc(N4CCC[C@H]4C)cnc3N)o2)cc1 [Compound I-362, 3-[5-[4-(Methylaminomethyl)phenyl]-1,3,4-oxadiazol-2-yl]-5-[(2R)-2-methylpyrrolidin-1-yl]pyrazin-2-amine]	100 to 1000
Nc1ncc(N2CCN(C(=O)N3CCCC3)CC2)nc1-c1nnc(-c2ccccc2)o1 [Compound I-223, (4-(5-amino-6-(5-phenyl-1,3,4-oxadiazol-2-yl)pyrazin-2-yl)piperazin-1-yl)(pyrrolidin-1-yl)methanone]	100 to 1000
CNCc1ccc(-c2nnc(-c3nc(N4CC[C@@H](CNC(C)=O)C4)cnc3N)o2)cc1 [Compound I-323, N-[[(3S)-1-[5-Amino-6-[5-[4-(methylaminomethyl)phenyl]-1,3,4-oxadiazol-2-yl]pyrazin-2-yl]pyrrolidin-3-yl]methyl]acetamide]	< 100
CNCc1ccc(-c2nnc(-c3nc(C4=CCC(C)CC4)cnc3N)o2)cc1 (centres unmarked) [Compound I-336, 3-(5-(4-((Methylamino)methyl)phenyl)-1,3,4-oxadiazol-2-yl)-5-(4-methylcyclohex-1-enyl)pyrazin-2-amine]	100 to 1000
Nc1ncc(C2=CCN(C(=O)N3CCOCC3)CC2)nc1-c1nnc(-c2ccccc2)o1 [Compound I-217, (4-(5-amino-6-(5-phenyl-1,3,4-oxadiazol-2-yl)pyrazin-2-yl)-5,6-dihydropyridin-1(2H)-yl)(morpholino)methanone]	< 100
CNCc1ccc(-c2nnc(-c3nc(N4C[C@@H]5C(C(=O)N(C)C)[C@@H]5C4)cnc3N)o2)cc1 (stereo partly drawn) [Compound I-351, (1R,5S)-3-[5-Amino-6-[5-[4-(methylaminomethyl)phenyl]-1,3,4-oxadiazol-2-yl]pyrazin-2-yl]-N,N-dimethyl-3-azabicyclo[3.1.0]hexane-6-carboxamide]	100 to 1000
Nc1ncc(N2CCN(C(=O)COc3ccccc3)CC2)nc1-c1nnc(-c2ccccc2)o1 [Compound I-195, 1-(4-(5-amino-6-(5-phenyl-1,3,4-oxadiazol-2-yl)pyrazin-2-yl)piperazin-1-yl)-2-phenoxyethanone]	1000 to 10000
CCC(=O)N1C[C@@H]2C[C@@H]1CN2c1cnc(N)c(-c2nnc(-c3ccc(CNC)cc3)o2)n1 [Compound I-334, 1-[(1S,4R)-2-[5-Amino-6-[5-[4-(methylaminomethyl)phenyl]-1,3,4-oxadiazol-2-yl]pyrazin-2-yl]-2,5-diazabicyclo[2.2.1]heptan-5-yl]propan-1-one]	100 to 1000
CC(=O)N1CCN(c2cnc(N)c(-c3nc4ccc(C)cc4[nH]3)n2)CC1 [Compound I-10, 1-(4-(5-amino-6-(6-methyl-1H-benzo[d]imidazol-2-yl)pyrazin-2-yl)piperazin-1-yl)ethanone]	100 to 1000
Nc1ncc(C2=CCN(C(=O)COc3ccccc3)CC2)nc1-c1nc2ccccc2[nH]1 [Compound I-137, 1-(4-(5-amino-6-(1H-benzo[d]imidazol-2-yl)pyrazin-2-yl)-5,6-dihydropyridin-1(2H)-yl)-2-phenoxyethanone]	100 to 1000
CCS(=O)(=O)N1CCN(c2cnc(N)c(-c3nnc(-c4cccc(N)c4)[nH]3)n2)CC1 [Compound I-57, 3-(5-(3-aminophenyl)-4H-1,2,4-triazol-3-yl)-5-(4-(ethylsulfonyl)piperazin-1-yl)pyrazin-2-amine]	100 to 1000
CCC(=O)NC1CCN(c2cnc(N)c(-c3nnc(-c4ccc(CNC)cc4)o3)n2)CC1 [Compound I-366, N-(1-(5-Amino-6-(5-(4-((methylamino)methyl)phenyl)-1,3,4-oxadiazol-2-yl)pyrazin-2-yl)piperidin-4-yl)propionamide]	100 to 1000
CN1CCN(C(=O)N2CC=C(c3cnc(N)c(-c4nc5ccccc5[nH]4)n3)CC2)CC1 [Compound I-161, (4-(5-amino-6-(1H-benzo[d]imidazol-2-yl)pyrazin-2-yl)-5,6-dihydropyridin-1(2H)-yl)(4-methylpiperazin-1-yl)methanone]	100 to 1000
Cc1ccc2nc(-c3nc(N4CCN(c5ccccn5)CC4)cnc3N)[nH]c2c1 [Compound I-64, 3-(6-methyl-1H-benzo[d]imidazol-2-yl)-5-(4-(pyridin-2-yl)piperazin-1-yl)pyrazin-2-amine]	1000 to 10000
Cc1ccc2nc(-c3nc(N4CCC(N(C)C)CC4)cnc3N)[nH]c2c1 [Compound I-49, 5-(4-(dimethylamino)piperidin-1-yl)-3-(6-methyl-1H-benzo[d]imidazol-2-yl)pyrazin-2-amine]	1000 to 10000
CCC(=O)N1CCN(c2cnc(N)c(-c3nnc(-c4ccc(CNC)cc4)o3)n2)C[C@H]1C(C)C [Compound I-333, 1-[(2R)-4-[5-Amino-6-[5-[4-(methylaminomethyl)phenyl]-1,3,4-oxadiazol-2-yl]pyrazin-2-yl]-2-isopropyl-piperazin-1-yl]propan-1-one]	100 to 1000

Compound	Ki [nM]
Nc1ncc(N2Cc3ccccc3C2=O)nc1-c1nc2ccccc2[nH]1 [Compound I-304, 2-[5-amino-6-(1H-benzimidazol-2-yl)pyrazin-2-yl]isoindolin-1-one]	100 to 1000
CCS(=O)(=O)N1CCN(c2cnc(N)c(-c3nnc(-c4ccccc4C)o3)n2)CC1 [Compound I-287, 5-(4-ethylsulfonylpiperazin-1-yl)-3-[5-(o-tolyl)-1,3,4-oxadiazol-2-yl]pyrazin-2-amine]	100 to 1000
Nc1ncc(N2CC[C@H](NC(=O)c3cccnc3)C2)nc1-c1nc2ccccc2[nH]1 [Compound I-188, (S)-N-(1-(5-amino-6-(1H-benzo[d]imidazol-2-yl)pyrazin-2-yl)pyrrolidin-3-yl)pyridine-3-carboxamide]	100 to 1000
CNCc1ccc(-c2nnc(-c3nc(N4C[C@H]5CCC(OS(C)(=O)=O)[C@H]5C4)cnc3N)o2)cc1 (some centres unmarked) [Compound I-320]	< 100
CCS(=O)(=O)N1CC=C(c2cnc(N)c(C(=O)Nc3ccnc(C)c3)n2)CC1 [Compound I-166, 3-amino-6-(1-(ethylsulfonyl)-1,2,3,6-tetrahydropyridin-4-yl)-N-(2-methylpyridin-4-yl)pyrazine-2-carboxamide]	100 to 1000
Cc1ccc2nc(-c3nc(N4CCN(c5ccccc5C#N)CC4)cnc3N)[nH]c2c1 [Compound I-50, 2-(4-(5-amino-6-(6-methyl-1H-benzo[d]imidazol-2-yl)pyrazin-2-yl)piperazin-1-yl)benzonitrile]	1000 to 10000
Nc1ncc(C2=CCNCC2)nc1-c1nc2ccccc2[nH]1 [Compound I-66, 3-(1H-benzo[d]imidazol-2-yl)-5-(1,2,3,6-tetrahydropyridin-4-yl)pyrazin-2-amine]	100 to 1000
COC(=O)N1CC=C(c2cnc(N)c(-c3nc4ccccc4[nH]3)n2)CC1 [Compound I-244, methyl 4-(5-amino-6-(1H-benzo[d]imidazol-2-yl)pyrazin-2-yl)-5,6-dihydropyridine-1(2H)-carboxylate]	100 to 1000
Nc1ncc(C2=CCN(C(=O)Cc3ccccc3)CC2)nc1-c1nnc(-c2ccccc2)o1 [Compound I-201, 1-(4-(5-amino-6-(5-phenyl-1,3,4-oxadiazol-2-yl)pyrazin-2-yl)-5,6-dihydropyridin-1(2H)-yl)-2-phenylethanone]	< 100
CCOC(=O)N1CCN(c2cnc(N)c(-c3nnc(-c4ccccc4)o3)n2)CC1 [Compound I-232, ethyl 4-(5-amino-6-(5-phenyl-1,3,4-oxadiazol-2-yl)pyrazin-2-yl)piperazine-1-carboxylate]	100 to 1000
COCCOCC(=O)N[C@H]1CCN(c2cnc(N)c(-c3nc4ccccc4[nH]3)n2)C1 [Compound I-181, (S)-N-(1-(5-amino-6-(1H-benzo[d]imidazol-2-yl)pyrazin-2-yl)pyrrolidin-3-yl)-2-(2-methoxyethoxy)ethanamide]	1000 to 10000
Nc1ncc(N2CC[C@H](NC(=O)c3ccccn3)C2)nc1-c1nc2ccccc2[nH]1 [Compound I-193, (S)-N-(1-(5-amino-6-(1H-benzo[d]imidazol-2-yl)pyrazin-2-yl)pyrrolidin-3-yl)pyridine-2-carboxamide]	100 to 1000
Nc1ncc(N2CCN(C(=O)C3CCC3)CC2)nc1-c1nc2ccccc2[nH]1 [Compound I-174, (4-(5-amino-6-(1H-benzo[d]imidazol-2-yl)pyrazin-2-yl)piperazin-1-yl)(cyclobutyl)methanone]	1000 to 10000
COC(=O)N1CCN(c2cnc(N)c(-c3nc4ccccc4[nH]3)n2)CC1 [Compound I-268, methyl 4-(5-amino-6-(1H-benzo[d]imidazol-2-yl)pyrazin-2-yl)piperazine-1-carboxylate]	1000 to 10000
CNCCC(=O)N1CC=C(c2cnc(N)c(-c3nc4ccccc4[nH]3)n2)CC1 [Compound I-346, 1-(4-(5-Amino-6-(1H-benzo[d]imidazol-2-yl)pyrazin-2-yl)-5,6-dihydropyridin-1(2H)-yl)-3-(methylamino)propan-1-one]	100 to 1000
CCS(=O)(=O)N1CCN(c2cnc(N)c(C(=O)Nc3ccccn3)n2)CC1 [Compound I-55, 3-amino-6-(4-(ethylsulfonyl)piperazin-1-yl)-N-(pyridin-2-yl)pyrazine-2-carboxamide]	100 to 1000
COC(=O)N1CCN(c2cnc(N)c(-c3nnc(-c4ccccc4)o3)n2)CC1 [Compound I-225, methyl 4-(5-amino-6-(5-phenyl-1,3,4-oxadiazol-2-yl)pyrazin-2-yl)piperazine-1-carboxylate]	100 to 1000
